Measured values: article PMC9652372, “Glycolytic flux control by drugging phosphoglycolate phosphatase” (Nature Communications, 2022)
In brackets after ≈: the same amount, converted by molar mass. Several values for one entry are separate records, joined by “and”; a condition that tells them apart may be missing. Equal values may be shown once.

Assays:
murine PGP [1] = target: T1, murine PGP (Mus musculus, UniProt Q8CHP8); assay: SAR: CP1, CP2 and analogs on PGP phosphatase activity (PG); type: biochemical; set-up: His6 (N, cleaved yes); made in house; host or cells: Escherichia coli BL21 (DE3), pETM11, co-expressed with groES-groEL-tig; details: for inhibition of mPGP activity at 40 µM CP compared to DMSO control (%): single experiments Exp #1-3
T1 sequence (Q8CHP8 1-321): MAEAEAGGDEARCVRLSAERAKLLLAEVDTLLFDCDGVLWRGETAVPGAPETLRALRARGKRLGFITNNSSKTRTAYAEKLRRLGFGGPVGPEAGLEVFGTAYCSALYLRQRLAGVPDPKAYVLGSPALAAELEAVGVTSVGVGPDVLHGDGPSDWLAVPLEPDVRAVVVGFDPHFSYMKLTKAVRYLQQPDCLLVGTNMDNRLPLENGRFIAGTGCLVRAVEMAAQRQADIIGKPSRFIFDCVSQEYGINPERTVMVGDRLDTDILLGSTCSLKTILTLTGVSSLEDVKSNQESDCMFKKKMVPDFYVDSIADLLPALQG
Method: However, the DMSO concentration was kept constant across each assay. For SAR experiments, all compound stocks were prepared at 10 mM in 100% DMSO. A constant final DMSO concentration of 0.4% was maintained under all conditions, and solvent control samples contained 0.4% DMSO without compounds.
PGP phosphatase activity were assessed using recombinant, purified murine PGP and PG as a

[2] = Compound solubility in 100% DMSO
murine PGP [3] = target: T1, murine PGP

SMILES	inhibition of mPGP activity at 40 µM CP compared to DMSO control (%) (murine PGP [1])	mPGP activity in presence of CP relative to DMSO controls, mPGP on PG (norm.) (murine PGP [1]; CP log[M] -4.39794)	mPGP activity in presence of CP relative to DMSO controls, mPGP on PG (norm.) (murine PGP [1]; CP log[M] -4.69897)	mPGP activity in presence of CP relative to DMSO controls, mPGP on PG (norm.) (murine PGP [1]; CP log[M] -5)	mPGP activity in presence of CP relative to DMSO controls, mPGP on PG (norm.) (murine PGP [1]; CP log[M] -5.30103)	mPGP activity in presence of CP relative to DMSO controls, mPGP on PG (norm.) (murine PGP [1]; CP log[M] -5.60206)	mPGP activity in presence of CP relative to DMSO controls, mPGP on PG (norm.) (murine PGP [1]; CP log[M] -5.90309)	mPGP activity in presence of CP relative to DMSO controls, mPGP on PG (norm.) (murine PGP [1]; CP log[M] -6.20412)	mPGP activity in presence of CP relative to DMSO controls, mPGP on PG (norm.) (murine PGP [1]; CP log[M] -6.50515)	mPGP activity in presence of CP relative to DMSO controls, mPGP on PG (norm.) (murine PGP [1]; CP log[M] -6.80618)	mPGP activity in presence of CP relative to DMSO controls, mPGP on PG (norm.) (murine PGP [1]; CP log[M] -7.10721)	solubility in 100% DMSO [2] [mM]	also measured
O=C(Cc1cccs1)Nc1ccc(Cc2ccc(NC(=O)Cc3cccs3)c(C(=O)O)c2)cc1C(=O)O [2C]	80.4469% and 79.9492% and 79.3956%	0.2193 and 0.2518 and 0.2324	0.388 and 0.3967 and 0.3732	0.5639 and 0.5534 and 0.5023	0.6916 and 0.6556 and 0.5915	0.788 and 0.7767 and 0.6502	0.8578 and 0.8527 and 0.8404	0.853 and 0.8789 and 0.9014	0.9181 and 0.905 and 0.9155	0.9349 and 0.9264 and 0.946	1.002 and 0.9691 and 0.9624	–	mPGP activity in presence of CP relative to DMSO controls, mPGP on PG (norm.) (murine PGP [1]; CP log[M] -4.09691): 0.1542 and 0.1663 and 0.1408
O=C(O)c1cc(Cc2ccc(NC(=O)c3ccccc3[N+](=O)[O-])c(C(=O)O)c2)ccc1NC(=O)c1ccccc1[N+](=O)[O-] [2B]	97.486% and 99.4924% and 100.275%	0.02406 and 0.01842 and 0.02506	0.04813 and 0.03947 and 0.05013	0.08824 and 0.08421 and 0.08772	0.1631 and 0.1684 and 0.1604	0.2914 and 0.2711 and 0.2932	0.4679 and 0.4553 and 0.4662	0.6203 and 0.5816 and 0.584	0.7781 and 0.7842 and 0.7769	0.8663 and 0.8184 and 0.817	0.9358 and 0.8579 and 0.8521	10 (≈ 5.84 mg/mL)	mPGP activity in presence of CP relative to DMSO controls, mPGP on PG (norm.) (murine PGP [1]; CP log[M] -7.40824): 0.9332 and 0.9316 and 0.9248; PGP inhibitory potency compared to parental compound (murine PGP [1]; PG dephosphorylation assay): slightly more potent than the parental compound
O=C(O)c1ccccc1NC(=O)c1ccccc1Oc1ccccc1C(=O)Nc1ccccc1C(=O)O [1D]	14.6739% and 27.6836% and 20.8494%	–	–	–	–	–	–	–	–	–	–	–	–
O=C(Nc1ccc(Cc2ccc(NC(=O)c3cccs3)c(C(=O)O)c2)cc1C(=O)O)c1cccs1 [2D]	93.8547% and 93.1472% and 91.7582%	0.09632 and 0.08995 and 0.05602	0.1303 and 0.1085 and 0.126	0.1756 and 0.1746 and 0.1485	0.2578 and 0.2672 and 0.2745	0.4504 and 0.4206 and 0.395	0.5949 and 0.6032 and 0.5826	0.7592 and 0.7328 and 0.6807	0.8952 and 0.8386 and 0.8543	0.932 and 0.8836 and 0.7843	0.9207 and 0.918 and 0.9468	50 (≈ 25.3 mg/mL)	mPGP activity in presence of CP relative to DMSO controls, mPGP on PG (norm.) (murine PGP [1]; CP log[M] -7.40824): 0.9632 and 0.9206 and 0.9552
O=C(O)c1ccccc1N1C(=O)c2ccc(Oc3ccc4c(c3)C(=O)N(c3ccccc3C(=O)O)C4=O)cc2C1=O [1B]	29.6196% and 23.1638% and 21.6216%	–	–	–	–	–	–	–	–	–	–	–	–
O=C(O)c1cccc(NC(=O)c2ccc(Oc3ccc(C(=O)Nc4cccc(C(=O)O)c4)cc3)cc2)c1 [1C]	57.0652% and 64.9718% and 66.7954%	–	0.5416 and 0.5073 and 0.4404	0.7056 and 0.6098 and 0.6376	0.8 and 0.7439 and 0.7317	0.9101 and 0.8268 and 0.7615	0.8683 and 0.8326	–	–	–	–	–	mPGP activity in presence of CP relative to DMSO controls, mPGP on PG (norm.) (murine PGP [1]; CP log[M] -4): 0.1618 and 0.1854 and 0.172; mPGP activity in presence of CP relative to DMSO controls, mPGP on PG (norm.) (murine PGP [1]; CP log[M] -4.12494): 0.2268 and 0.2271; mPGP activity in presence of CP relative to DMSO controls, mPGP on PG (norm.) (murine PGP [1]; CP log[M] -4.30103): 0.3124 and 0.2854 and 0.2844; mPGP activity in presence of CP relative to DMSO controls, mPGP on PG (norm.) (murine PGP [1]; CP log[M] -4.60206): 0.427 and 0.4195 and 0.4312; mPGP activity in presence of CP relative to DMSO controls, mPGP on PG (norm.) (murine PGP [1]; CP log[M] -4.82391): 0.6225 and 0.5805 and 0.5711
COc1ccc(C(=O)Nc2ccccc2C(=O)O)cc1 [1E]	33.1522% and 38.1356% and 45.1737%	–	–	–	–	–	–	–	–	–	–	–	–
O=C(O)c1cc2ccccc2c(-c2c(O)c(C(=O)O)cc3ccccc23)c1O [GYJACFGQPFXKCA-UHFFFAOYSA-N]	–	–	–	–	–	–	–	–	–	–	–	–	IC50 (murine PGP [3]): > 50 µM
Cc1nnc(SCC(=O)Nc2ccc(Cc3ccc(NC(=O)CSc4nnc(C)s4)c(C(=O)O)c3)cc2C(=O)O)s1 [2E]	43.2961% and 38.3249% and 35.989%	–	–	–	–	–	–	–	–	–	–	100 (≈ 63.1 mg/mL)	–
